Test results as given in patent US11413267B2, “Methods and compositions for inhibition of ATR and FANCD2 activation” (priority 2012, dated 2022).
Marks after values point to notes of the source that are not given here.

Experiments:
CHO cells = experiment: In vitro chromosome aberration test; format: cell-based, Chinese Hamster; conditions: for Average aberrant metaphases (%) / Chromatid break (No.) / Chromatid deletion / Complex rerrangement / Dicentric / Polyploid / Pulverized cell / Quadriradial / Ring / Triradial: Chinese hamster, 20 h
Protocol: To test this hypothesis, we investigated the cytogenetic effect of Protoapigenone (I-1) on CHO cells (FIG. 1).
In brief, 5×10^5 Chinese Hamster Ovary (CHO) cells were seeded in 60-mm dishes 1 d before the experiment. Protoapigenone (I-1)-induced structural chromosomal changes after 20 h were compared with that of the cells cultured in 2 μM mitomycin C. At 18 h after Protoapigenone (I-1), 0.1 μg/mL colchicine was added for 2 h, and metaphase cells were collected by shaking them off the dishes. Mitotic cells were treated with 0.5% KCl for 10 min and fixed with a 3:1 mixture of methanol: glacial acetic acid. The cells were then spread on slides for chromosome staining with 5% Giemsa solution. We then analyzed the chromosome structure of 200 well-spread metaphase cells (100 metaphase cells/experiment) under a 100× oil immersion objective.

cancer cells = experiment: MTT cytotoxicity assay on cancer cells, 48 h; format: cell-based, human; conditions: FIG. 4
MDA-MB-231 cells = experiment: In vitro chemosensitization assay (clonogenic survival); format: cell-based, human
Text: Inhibition of the checkpoint and repair mechanisms leads to chemosensitization in cancers. […] We further treated individual cells with cisplatin in combination with several varying doses of benzopyran-4-one derivatives, and counted survival colonies to determine their ability to survive after cisplatin-induced damage. […] To investigate the chemosensitization effect of low-dose benzopyran-4-one derivatives in vivo, we established a tumor xenograft in nude mice using human MDA-MB-231 tumor cells, which are considered to be more resistant to cisplatin and are also sensitive to treatment with benzopyran-4-one derivatives, at least as compared to A549 cells (FIGS. 4, 17(a) and 17(b)). […] The pharmacokinetic data of Protoapigenone (I-1) and compound II-1 needs to be compared in future studies to determine the differences in the chemical effects of these 2 compounds in vitro and in vivo.
Please refer to FIGS. 31(a)-31(e), which are the surviving fractions of MDA-MB-231 cells which were co-administered compound II-1 with the DNA damaging agent, i.e. (a) doxorubicin, (b) etoposide, (c) mytomycin C, (d) camptothecin, or (e) taxol. […] Accordingly, a low dose of benzopyran-4-one derivatives can enhance the chemosensitivity of the chemotherapeutic drug.
To evaluate in vitro chemosensitization, cells were seeded in 6-well plates 1 d before the experiment at a density of 100-400 cells/well. The drugs were incubated with the cells for 6 h, after which the medium was replaced with fresh drug-free FBS-containing medium. The colonies became visible and were counted 7-10 d later using 0.1% crystal violet staining following image capture by a CCD camera (LAS-4000 mini; Fujifilm).

FANCD2 = experiment: Immunoblot of FANCD2 monoubiquitination; format: cell-based, human; conditions: cisplatin-treated cells, same doses as Protoapigenone (I-1)
Text: Understanding the mechanism by which the benzopyran-4-one derivatives compounds cause chromosomal breakages (FIG. 1) and other abnormalities might aid in identifying their targets. We hypothesized that genes with functions associated with DNA damage checkpoints and/or DNA repair might be targeted by benzopyran-4-one derivatives. To test this hypothesis, we assessed the effects of benzopyran-4-one derivatives on DDR induced by H2O2. […] In response to DNA double-strand breaks (DSBs), FANCD2 is known to be monoubiquitinated on K561 (FANCD2-Ub) in an ATR-dependent manner to stimulate repair (Andreassen P R, et al. Genes Dev 2004). […] Collectively, these findings indicate that benzopyran-4-one derivatives can modify ATR signaling after various types of DNA damage.
Inhibition of the checkpoint and repair mechanisms leads to chemosensitization in cancers. […] We further treated individual cells with cisplatin in combination with several varying doses of benzopyran-4-one derivatives, and counted survival colonies to determine their ability to survive after cisplatin-induced damage. […]
Cell lysate preparations, gel electrophoresis, and immunoblotting were performed as previously described (23). The binding of primary antibodies were detected by horseradish peroxidase-coupled secondary antibodies (Jackson ImmunoResearch) followed by enhanced chemiluminescence (ECL) (Millipore). […]

host cell = experiment: MTT assay of host cell toxicity; format: cell-based; conditions: 1 μM, 6 hours treatment plus 18 hours fresh medium
Protocol: To understand whether or not inhibition of the virus infection is followed by the host cell toxicity caused by the compound treatments, we performed an MTT [3-(4,5-cimethylthiazol-2-yl)-2,5-diphenyl tetrazolium bromide] assay in cells untreated or treated with indicated compounds for 6 hours. After that, the compound is washed out and the MTT assay was tested after an additional 18 hours of fresh culture medium incubation, in a way similar to the protocol shown in FIG. 26. 0.5 mg/mL of MTT contained media was added to cells at the end of the experiment and incubated for 3 hours. Then, the supernatant was removed and the formazone crystals solubilized using 100 μl of DMSO and the absorbance at 570 nm was read using a microplate reader. […] However, the virus inhibition effect of 50-99% is also shown at this dose of Compound II-1.

O=C1C=CC(O)(c2cc(=O)c3c(O)cc(O)cc3o2)C=C1 [Compound I-1, Protoapigenone]
Chromosomal structural changes (breakages, radials, polyploidy), in words (CHO cells): dose-dependent increases | Obtaining complete mitotic chromosome (CHO cells): complete mitotic chromosome could not be obtained | Average aberrant metaphases (%) (CHO cells; 2.17 μM): 6.5 * % | Chromatid break (No.) (CHO cells; 2.17 μM): 2 No. | Chromatid deletion (CHO cells; 2.17 μM): 0 No. | Complex rerrangement (CHO cells; 2.17 μM): 0 No. | Dicentric (CHO cells; 2.17 μM): 0 No. | Polyploid (CHO cells; 2.17 μM): 3 No. | Pulverized cell (CHO cells; 2.17 μM): 0 No. | Quadriradial (CHO cells; 2.17 μM): 3 No. | Ring (CHO cells; 2.17 μM): 1 No. | Triradial (CHO cells; 2.17 μM): 4 No. | Average aberrant metaphases (%) (CHO cells; 4.35 μM): 14.0 * % | Chromatid break (No.) (CHO cells; 4.35 μM): 1 No. | Chromatid deletion (CHO cells; 4.35 μM): 1 No. | Complex rerrangement (CHO cells; 4.35 μM): 0 No. | Dicentric (CHO cells; 4.35 μM): 0 No. | Polyploid (CHO cells; 4.35 μM): 1 No. | Pulverized cell (CHO cells; 4.35 μM): 1 No. | Quadriradial (CHO cells; 4.35 μM): 9 No. | Ring (CHO cells; 4.35 μM): 2 No. | Triradial (CHO cells; 4.35 μM): 13 No.

O=C1C=CC(O)(c2cc(=O)c3c(ccc4ccccc43)o2)C=C1 [Compound II-1, 3-(1-hydroxy-4-oxo-cyclohexa-2,5-dienyl)-1H-benzo[f]chromen-1-one]
Cytotoxicity, comparison (cancer cells): more potent than Protoapigenone (I-1) | Survival of MDA-MB-231 cells (MDA-MB-231 cells; 2.5 nM to 20.0 nM co-administered with camptothecin): not significantly decreased | Survival of MDA-MB-231 cells (MDA-MB-231 cells; 2.5 nM to 20.0 nM co-administered with doxorubicin): significantly decreased | Survival of MDA-MB-231 cells (MDA-MB-231 cells; 2.5 nM to 20.0 nM co-administered with etoposide): significantly decreased | Survival of MDA-MB-231 cells (MDA-MB-231 cells; 2.5 nM to 20.0 nM co-administered with mytomycin C): significantly decreased | Survival of MDA-MB-231 cells (MDA-MB-231 cells; 2.5 nM to 20.0 nM co-administered with taxol): not significantly decreased | FANCD2 monoubiquitination and protein stability (FANCD2): not only inhibits monoubiquitination of FANCD2 but also affects FANCD2 protein stability | Decrease of surviving cells (host cell): 5-10%
